# In PubChem BioAssay (NCI):
#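 All cell lines were grown in 96-well plates and treated with compound for 48 hours. TGI denotes the concentration required for complete inhibition of growth.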
# Legend:
# Assay in all cases: NCI-60 cell line screen, 48 h
# SR leukemia = system: SR leukemia
# NCI-H460 lung = system: NCI-H460 lung
# M14 melanoma = system: M14 melanoma
# A498 renal = system: A498 renal
# A549 NSCLC = system: A549 NSCLC
# OVCAR-8 ovarian = system: OVCAR-8 ovarian
# SW-620 colon = system: SW-620 colon
# MALME-3M melanoma = system: MALME-3M melanoma
# KM20L2 colon = system: KM20L2 colon
# NCI-H23 lung = system: NCI-H23 lung
# UO-31 renal = system: UO-31 renal
# UACC-257 melanoma = system: UACC-257 melanoma
# SF-295 CNS = system: SF-295 CNS
# SF-268 CNS = system: SF-268 CNS
# IGROV1 ovarian = system: IGROV1 ovarian
# XF 498 CNS = system: XF 498 CNS
# DMS 273 small cell lung = system: DMS 273 small cell lung
# EKVX NSCLC = system: EKVX NSCLC
# LOX IMVI melanoma = system: LOX IMVI melanoma
# SK-MEL-28 melanoma = system: SK-MEL-28 melanoma
# HOP-62 NSCLC = system: HOP-62 NSCLC
# LXFL 529 NSCLC = system: LXFL 529 NSCLC
# RXF 393 renal = system: RXF 393 renal
# HOP-92 NSCLC = system: HOP-92 NSCLC
# DMS 114 small cell lung = system: DMS 114 small cell lung
# HCC-2998 colon = system: HCC-2998 colon
# 786-0 renal = system: 786-0 renal
# SK-MEL-2 melanoma = system: SK-MEL-2 melanoma
# ACHN renal = system: ACHN renal
# NCI-H522 lung = system: NCI-H522 lung
# HT29 colon = system: HT29 colon
# SNB-78 CNS = system: SNB-78 CNS
# TK-10 renal = system: TK-10 renal
# HCT-15 colon = system: HCT-15 colon
# SN12C renal = system: SN12C renal
# MOLT-4 leukemia = system: MOLT-4 leukemia
# HOP-18 NSCLC = system: HOP-18 NSCLC
# DLD-1 colon = system: DLD-1 colon
# M19-MEL melanoma = system: M19-MEL melanoma
# KM12 colon = system: KM12 colon
# CCRF-CEM leukemia = system: CCRF-CEM leukemia
# HL-60(TB) leukemia = system: HL-60(TB) leukemia
# UACC-62 melanoma = system: UACC-62 melanoma
# U251 CNS = system: U251 CNS
# HCT-116 colon = system: HCT-116 colon
# COLO 205 colon = system: COLO 205 colon
# OVCAR-3 ovarian = system: OVCAR-3 ovarian
# SK-OV-3 ovarian = system: SK-OV-3 ovarian
# OVCAR-4 ovarian = system: OVCAR-4 ovarian
# SF-539 CNS = system: SF-539 CNS
# K-562 leukemia = system: K-562 leukemia
# RPMI-8226 leukemia = system: RPMI-8226 leukemia
# SNB-19 CNS = system: SNB-19 CNS
# SNB-75 CNS = system: SNB-75 CNS
# NCI-H226 lung = system: NCI-H226 lung
# CAKI-1 renal = system: CAKI-1 renal
# SK-MEL-5 melanoma = system: SK-MEL-5 melanoma
smiles,measurement,setting,value
C=C1CC[C@@H]2C(C)(C)C(O)CCC2(C)C1COc1ccc2ccc(=O)oc2c1 (stereo partly drawn),TGI,SR leukemia,56.9 µM
same,TGI,NCI-H460 lung,23.5 µM
same,TGI,M14 melanoma,33.2 µM
same,TGI,A498 renal,56.8 µM
same,TGI,A549 NSCLC,32.6 µM
same,TGI,OVCAR-8 ovarian,33.5 µM
same,TGI,SW-620 colon,42.4 µM
same,TGI,MALME-3M melanoma,32.1 µM
same,TGI,KM20L2 colon,40.5 µM
same,TGI,NCI-H23 lung,34.6 µM
same,TGI,UO-31 renal,29.4 µM
same,TGI,UACC-257 melanoma,32.6 µM
same,TGI,SF-295 CNS,29.7 µM
same,TGI,SF-268 CNS,36.7 µM
same,TGI,IGROV1 ovarian,33.5 µM
same,TGI,XF 498 CNS,29.6 µM
same,TGI,DMS 273 small cell lung,27.3 µM
same,TGI,EKVX NSCLC,37.4 µM
same,TGI,LOX IMVI melanoma,32 µM
same,TGI,SK-MEL-28 melanoma,32.2 µM
same,TGI,HOP-62 NSCLC,33.4 µM
same,TGI,LXFL 529 NSCLC,23.7 µM
same,TGI,RXF 393 renal,35.5 µM
same,TGI,HOP-92 NSCLC,35.4 µM
same,TGI,DMS 114 small cell lung,28.2 µM
same,TGI,HCC-2998 colon,34.8 µM
same,TGI,786-0 renal,42.2 µM
same,TGI,SK-MEL-2 melanoma,32 µM
same,TGI,ACHN renal,30.5 µM
same,TGI,NCI-H522 lung,29.8 µM
same,TGI,HT29 colon,37.3 µM
same,TGI,SNB-78 CNS,39.2 µM
same,TGI,TK-10 renal,36.9 µM
same,TGI,HCT-15 colon,28.3 µM
same,TGI,SN12C renal,30 µM
same,TGI,MOLT-4 leukemia,39.8 µM
same,TGI,HOP-18 NSCLC,35 µM
same,TGI,DLD-1 colon,34.4 µM
same,TGI,M19-MEL melanoma,32.5 µM
same,TGI,KM12 colon,29.8 µM
same,TGI,CCRF-CEM leukemia,49 µM
same,TGI,HL-60(TB) leukemia,36.3 µM
same,TGI,UACC-62 melanoma,29.4 µM
same,TGI,U251 CNS,34.3 µM
same,TGI,HCT-116 colon,28.8 µM
same,TGI,COLO 205 colon,28.1 µM
same,TGI,OVCAR-3 ovarian,32.6 µM
same,TGI,SK-OV-3 ovarian,55.2 µM
same,TGI,OVCAR-4 ovarian,29.7 µM
same,TGI,SF-539 CNS,31.3 µM
same,TGI,K-562 leukemia,44.1 µM
same,TGI,RPMI-8226 leukemia,33.8 µM
same,TGI,SNB-19 CNS,37.4 µM
same,TGI,SNB-75 CNS,32.2 µM
same,TGI,NCI-H226 lung,33.3 µM
Cc1c(C(=N)N)oc2ccccc12,TGI,SR leukemia,> 100 µM
same,TGI,NCI-H460 lung,> 100 µM
same,TGI,M14 melanoma,> 100 µM
same,TGI,A498 renal,> 100 µM
same,TGI,A549 NSCLC,> 100 µM
same,TGI,OVCAR-8 ovarian,> 100 µM
same,TGI,SW-620 colon,> 100 µM
same,TGI,MALME-3M melanoma,> 100 µM
same,TGI,KM20L2 colon,> 100 µM
same,TGI,NCI-H23 lung,> 100 µM
same,TGI,UO-31 renal,> 100 µM
same,TGI,UACC-257 melanoma,> 100 µM
same,TGI,SF-295 CNS,> 100 µM
same,TGI,CAKI-1 renal,> 100 µM
same,TGI,SF-268 CNS,> 100 µM
same,TGI,IGROV1 ovarian,> 100 µM
same,TGI,XF 498 CNS,> 100 µM
same,TGI,EKVX NSCLC,> 100 µM
same,TGI,LOX IMVI melanoma,> 100 µM
same,TGI,SK-MEL-28 melanoma,> 100 µM
same,TGI,HOP-62 NSCLC,> 100 µM
same,TGI,LXFL 529 NSCLC,> 100 µM
same,TGI,RXF 393 renal,> 100 µM
same,TGI,HOP-92 NSCLC,> 100 µM
same,TGI,SK-MEL-5 melanoma,> 100 µM
same,TGI,DMS 114 small cell lung,> 100 µM
same,TGI,HCC-2998 colon,> 100 µM
same,TGI,786-0 renal,> 100 µM
same,TGI,ACHN renal,> 100 µM
same,TGI,NCI-H522 lung,> 100 µM
same,TGI,HT29 colon,> 100 µM
same,TGI,SNB-78 CNS,> 100 µM
same,TGI,TK-10 renal,> 100 µM
same,TGI,SN12C renal,> 100 µM
same,TGI,MOLT-4 leukemia,> 100 µM
same,TGI,HOP-18 NSCLC,> 100 µM
same,TGI,DLD-1 colon,> 100 µM
same,TGI,M19-MEL melanoma,> 100 µM
same,TGI,KM12 colon,> 100 µM
same,TGI,CCRF-CEM leukemia,> 100 µM
same,TGI,HL-60(TB) leukemia,> 100 µM
same,TGI,UACC-62 melanoma,> 100 µM
same,TGI,U251 CNS,> 100 µM
same,TGI,HCT-116 colon,> 100 µM
same,TGI,COLO 205 colon,> 100 µM
same,TGI,OVCAR-3 ovarian,> 100 µM
same,TGI,SK-OV-3 ovarian,> 100 µM
same,TGI,OVCAR-4 ovarian,> 100 µM
same,TGI,SF-539 CNS,> 100 µM
same,TGI,K-562 leukemia,> 100 µM
same,TGI,SNB-19 CNS,> 100 µM
same,TGI,SNB-75 CNS,> 100 µM
same,TGI,NCI-H226 lung,> 100 µM
COc1nc(NC2OCC(O)C(O)C2O)c(NC2OCC(O)C(O)C2O)c(=O)n1C (stereo not drawn),TGI,SR leukemia,> 100 µM
same,TGI,NCI-H460 lung,> 100 µM
same,TGI,M14 melanoma,> 100 µM
same,TGI,A498 renal,> 100 µM
same,TGI,A549 NSCLC,> 100 µM
same,TGI,OVCAR-8 ovarian,> 100 µM
same,TGI,SW-620 colon,> 100 µM
same,TGI,MALME-3M melanoma,> 100 µM
same,TGI,KM20L2 colon,> 100 µM
same,TGI,NCI-H23 lung,> 100 µM
same,TGI,UO-31 renal,> 100 µM
same,TGI,UACC-257 melanoma,> 100 µM
same,TGI,SF-295 CNS,> 100 µM
same,TGI,SF-268 CNS,> 100 µM
same,TGI,IGROV1 ovarian,> 100 µM
same,TGI,XF 498 CNS,> 100 µM
same,TGI,DMS 273 small cell lung,> 100 µM
same,TGI,EKVX NSCLC,> 100 µM
same,TGI,LOX IMVI melanoma,> 100 µM
same,TGI,SK-MEL-28 melanoma,> 100 µM
same,TGI,HOP-62 NSCLC,> 100 µM
same,TGI,LXFL 529 NSCLC,> 100 µM
same,TGI,RXF 393 renal,> 100 µM
same,TGI,HOP-92 NSCLC,> 100 µM
same,TGI,DMS 114 small cell lung,> 100 µM
same,TGI,HCC-2998 colon,> 100 µM
same,TGI,786-0 renal,> 100 µM
same,TGI,SK-MEL-2 melanoma,> 100 µM
same,TGI,ACHN renal,> 100 µM
same,TGI,NCI-H522 lung,> 100 µM
same,TGI,HT29 colon,> 100 µM
same,TGI,SNB-78 CNS,> 100 µM
same,TGI,TK-10 renal,> 100 µM
same,TGI,HCT-15 colon,> 100 µM
same,TGI,SN12C renal,> 100 µM
same,TGI,MOLT-4 leukemia,> 100 µM
same,TGI,HOP-18 NSCLC,> 100 µM
same,TGI,DLD-1 colon,> 100 µM
same,TGI,M19-MEL melanoma,> 100 µM
same,TGI,KM12 colon,> 100 µM
same,TGI,CCRF-CEM leukemia,> 100 µM
same,TGI,HL-60(TB) leukemia,> 100 µM
same,TGI,UACC-62 melanoma,> 100 µM
same,TGI,U251 CNS,> 100 µM
same,TGI,HCT-116 colon,> 100 µM
same,TGI,COLO 205 colon,> 100 µM
same,TGI,OVCAR-3 ovarian,> 100 µM
same,TGI,SK-OV-3 ovarian,> 100 µM
same,TGI,OVCAR-4 ovarian,> 100 µM
same,TGI,SF-539 CNS,> 100 µM
same,TGI,K-562 leukemia,> 100 µM
same,TGI,RPMI-8226 leukemia,> 100 µM
same,TGI,SNB-19 CNS,> 100 µM
same,TGI,SNB-75 CNS,> 100 µM
same,TGI,NCI-H226 lung,> 100 µM
